Results from BigSolDB 2.1.

CCn1cc(C(=O)O)c(=O)c2cc(F)c(N3CCNC(C)C3)c(F)c21.Cl (stereo not given)
solubility (mole fraction)
Conditions | in ethanol | in water
296 K | – | 0.00088
298.2 K | 3e-05 | 0.0009
303.2 K | 3.2e-05 | –
308.2 K | 3.8e-05 | –
311.7 K | – | 0.00099
313.2 K | 4.1e-05 | –
316.3 K | – | 0.00104
318.2 K | 4.4e-05 | –
318.9 K | – | 0.0011
320.5 K | – | 0.00112
323.2 K | 5e-05 | –
328.3 K | – | 0.00121
335.9 K | – | 0.00129
338.7 K | – | 0.00134
340.7 K | – | 0.00138
344.2 K | – | 0.00145

CC1CCc2cc(F)cc3c(=O)c(C(=O)O)cn1c23 (stereo not given)
Conditions | solubility (mole fraction)
in ethanol, 301.9 K | 0.00015
in ethanol, 309.9 K | 0.00017
in ethanol, 315.2 K | 0.00023
in ethanol, 320.7 K | 0.00034
in ethanol, 328.7 K | 0.00053
in ethanol, 331.7 K | 0.00062
in ethanol, 335.5 K | 0.00075
in ethanol, 339.1 K | 0.00085
in ethanol, 340.5 K | 0.00091
in ethanol, 342.1 K | 0.00096
in ethanol, 344.2 K | 0.00114
in ethanol, 345.5 K | 0.0012
in water, 298.2 K | 2.1e-05
in water, 303.2 K | 2.3e-05
in water, 308.2 K | 2.6e-05
in water, 313.2 K | 2.8e-05
in water, 318.2 K | 3.2e-05
in water, 323.2 K | 3.8e-05

CCn1cc(C(=O)O)c(=O)c2cc(F)c(N3CCNCC3)cc21
in water
Conditions | solubility (mole fraction)
303.2 K | 7.3e-06
308.2 K | 9.1e-06
313.2 K | 1.12e-05
318.2 K | 1.37e-05
323.2 K | 1.7e-05
328.2 K | 2.05e-05

CCn1nc(C(=O)O)c(=O)c2cc3c(cc21)OCO3
Conditions | solubility (mole fraction)
in ethanol, 300.2 K | 5e-05
in ethanol, 303.1 K | 6e-05
in ethanol, 311.4 K | 8e-05
in ethanol, 315.1 K | 0.0001
in ethanol, 319.5 K | 0.00011
in ethanol, 321.6 K | 0.00013
in ethanol, 325.6 K | 0.00015
in ethanol, 329.1 K | 0.00018
in ethanol, 334 K | 0.0002
in ethanol, 337.2 K | 0.00024
in ethanol, 339.8 K | 0.00028
in ethanol, 342.8 K | 0.00031
in ethanol, 345.6 K | 0.00037
in water, 298.2 K | 4.2e-06
in water, 303.2 K | 5e-06
in water, 308.2 K | 5.4e-06
in water, 313.2 K | 5.9e-06
in water, 318.2 K | 7.1e-06
in water, 323.2 K | 9.9e-06
